The text below walks through data of publication PMC11213934, “Allosteric modulators of M1 muscarinic receptors enhance acetylcholine efficacy and decrease locomotor activity and turning behaviors in zebrafish” (Scientific Reports, 2024).

Marks after values point to notes of the source that are not given here.

The subject of series [1] is wild-type (AB) zebrafish (Danio rerio). The series is described as follows: Maximum tolerated concentration (MTC) determination in larval zebrafish. Conditions: after 24 h exposure; 5 dpf larvae. The format is in vivo. The method, then: (§1) Larval zebrafish were produced in the University of Toledo zebrafish core facility and housed in an incubator maintained at 28 °C on a 14:10 h cycle. Fish were acclimated to the testing room conditions the evening prior to testing. All testing took place during the 14 h light cycle after the lights had been on for at least 2 h.
Determination of maximum tolerated concentration (adapted from Berghmans)[52] was completed by placing 5 days post fertilization (dpf) wild-type zebrafish larvae in a 24 well plate at 6 fish per well, and one compound concentration per well. […] Death was determined by the absence of heartbeat. Additional endpoints were used to assess toxicity at non-lethal concentrations such as startle capacity (poke stimulus), abnormalities in swimming behavior (loss of dorsoventral balance), and gross morphological deformities (bent body). […] The MTC determination was used to select three doses of each compound (low, medium, high dose) to be used in behavioral assays.

Series [2] has the same test system. The format is in vivo. The settings on record: compound at 10 µM relative to controls; mean ± s.e.m., N = 12.
Series [3] has as its target T1, human M1 muscarinic receptors (Homo sapiens, UniProt P11229).
T1 sequence (P11229 1-460): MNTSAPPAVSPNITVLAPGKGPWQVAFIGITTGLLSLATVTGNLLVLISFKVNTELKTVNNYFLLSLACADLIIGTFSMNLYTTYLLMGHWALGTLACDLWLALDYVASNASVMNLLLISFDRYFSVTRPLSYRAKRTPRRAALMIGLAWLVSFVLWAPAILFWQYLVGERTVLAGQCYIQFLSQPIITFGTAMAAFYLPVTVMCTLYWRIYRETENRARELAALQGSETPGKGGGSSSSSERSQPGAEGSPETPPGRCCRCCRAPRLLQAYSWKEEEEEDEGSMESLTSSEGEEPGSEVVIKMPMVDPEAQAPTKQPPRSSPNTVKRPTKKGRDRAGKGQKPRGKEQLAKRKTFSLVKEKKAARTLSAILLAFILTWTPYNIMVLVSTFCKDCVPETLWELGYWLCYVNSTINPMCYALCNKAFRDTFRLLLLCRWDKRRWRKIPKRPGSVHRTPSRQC
The series is described as follows: [3H]-arachidonic acid release in CHO cells expressing M1 receptors, with and without ACh (single modulator concentration, four-parameter curves). It counts as cell-based. Details: expressed in transfected cells; host or cells: CHO cells stably transfected with hM1, obtained from Mark Brann's laboratory (NIH). The settings on record: for 0.1 µM ACh: response with modulator present divided by response to ACh alone / 100 µM ACh: response with modulator present divided by response to ACh alone / No ACh: agonist effect of the allosteric ligand by itself, fraction of the maximal response that could be elicited by ACh: modulator 10 µM, CHO-hM1, mean ± s.e.m.; for No ACh: agonist effect of the allosteric ligand by itself, fraction of the maximal response that could be elicited by ACh: at least 4 determinations. The method, then: CHO cells expressing human M1 muscarinic receptors were cultured at 37 °C in a 5% CO2 atmosphere in F12 medium supplemented with 5% fetal bovine serum, 100 units/ml penicillin, and 100 µg/ml streptomycin. These cells were obtained from Mark Brann’s laboratory when they were at NIH and have been in use by us and others for many years.
Measurement of [^3H]AA release was performed as described in Stahl and Ellis[24]. Stably transfected CHO-hM1 cells were seeded on 24-well plates (Greiner Bio-One GmbH, Frickenhausen, Germany) at a density of 5.0 × 10^4 cells/well in 0.5 ml of F-12 medium. Cells were incubated until they attached (approximately 3 h), followed by the addition of [^3H]AA to a final concentration of 0.05 μCi of [^3H]AA per well. The cells were then grown for 16 to 20 h before the assay was performed. [^3H]AA release was measured in Eagle’s basal medium with 20 mM HEPES and 2 mg/ml fatty acid-free bovine serum albumin (EM-BSA). Cells were rinsed twice with EM-BSA, followed by the addition of EM-BSA media containing experimental agents and incubated for 1 h at 37 °C. The assay was terminated by aspiration of the media, and the amount of [^3H]AA released was determined by liquid scintillation counting (Beckman-Coulter LS6500).
Where indicated (Fig. 2), cells were pretreated with POB to reduce the number of available receptors per cell. Stock POB was made up at 10 mM in ethanol and stored at −20C. Each well was pretreated with 0.5 ml of the appropriate concentration in PBS with 1 mM CaCl2 and 1 mM MgCl2 (PBS+ +) for 30 min at 37 °C, followed by 5 washes with PBS+ + . After pretreatment, the normal protocol follows as above.
Tabulated [^3H]AA release data are represented as a fraction of maximal release elicited by ACh or as the fraction of release elicited by the relevant concentration of ACh alone, as indicated. Dose-response curves were normalized to the maximal response of ACh without allosteric ligand. Where indicated, response curves were analyzed using the empirical four-parameter equation: Y=Top+Bottom-Top/1+X/C50^n where X is the concentration of the ligand used, Y is the amount of response, C50 is the concentration of the ligand that produces 50% of the maximal effect, Top and Bottom are the top and bottom plateaus of the curve, and n is related to the Hill slope for the curve. Where indicated, families of response curves were analyzed according to an allosteric operational model[50],[51]: Y=EM[τAA(KB+αβB)+τBBKA]/[τAA(KB+αβB)+τBBKA+AKB+KAKB+KAB+αAB] where EM is the maximal response; A is the concentration of ACh; B is the concentration of the allosteric ligand; τA and τB represent the operational efficacies of A and B, respectively; KA and KB are the equilibrium dissociation constants of A and B; and α and β represent the cooperativities between A and B in terms of binding and activation, respectively. Curve-fitting was carried out with GraphPad Prism, version 5.0 or 6.0 (San Diego CA).

The test system of series [4] is wild-type (AB) zebrafish (Danio rerio). The series can be described thus: animal or person. It counts as in vivo. The settings on record: for Distance moved / Variance turn angle: compound at 10 µM relative to controls, mean ± s.e.m., N = 12; for MEC: locomotor behaviors. Here is the method:
as §1
The movement of larval zebrafish was monitored with the Noldus behavior recording system (Noldus Information Technology, Leesburg VA) and quantified using EthoVision® XT 15 software (Noldus Information Technology, Leesburg VA). Five-dpf zebrafish larvae were exposed to a range of nonlethal concentrations of compounds in a 24-well plate with appropriate controls. The plate was immediately placed in the incubator for a 30-min exposure period. After 30 min, the plate was transferred to the Noldus system and swimming behavior was recorded in 100% light for 30 min to measure spontaneous swimming behavior. The light was switched off for 10 min (dark period) and then switched on for 10 min (light period), which was then repeated for two additional cycles. In total, the larvae were exposed to three cycles of alternating 10 min dark and light periods (100% darkness-to-100% light). Each drug challenge was conducted on three separate plates with n = 6 larvae/dose/plate.
Absolute turn angle (TA) and angular velocity provided measures of the extent of turning behavior, while the intra-individual variance of turn angle quantified how consistently (low variance) or inconsistently (high variance) fish turned. A lowered intra-individual variance of turning reflected repeatedly performing the same turning behavior, a stereotypy.
All data for exposure and the behavioral end points were analyzed by one-way ANOVA (factor: drug concentration) followed by a Dunnett’s multiple comparisons test for post hoc significance between drug concentration and control group. Statistically significant differences are noted as follows; *p < 0.05; **p < 0.01; ***p < 0.001.

Regarding `COc1ccc(CN2C(=O)C(=O)c3ccccc32)cc1I` [Compound 8b, 1-(3-iodo-4-methoxybenzyl)indoline-2,3-dione], the “MTC (maximum tolerated concentration)” value in series [1] was 10 µM. In series [2], this compound showed an Angular velocity of 175.3 ± 19.0 %. Besides, in series [3], the “0.1 µM ACh: response with modulator present divided by response to ACh alone” value stood at 2.13 ± 0.08; the “100 µM ACh: response with modulator present divided by response to ACh alone” value stood at 1.24 ± 0.01; the “No ACh: agonist effect of the allosteric ligand by itself, fraction of the maximal response that could be elicited by ACh” value is recorded as 0.08 ± 0.01. In series [4], the Therap. index is listed as 10, the Distance moved is reported as 52.7 ± 6.6*** %, the Variance turn angle was 143.0 ± 13.5** % and the MEC worked out at 1 µM.
In the case of `O=C1C(=O)N(Cc2ccc(O)cc2)c2ccccc21` [Compound 10, 1-(4-hydroxybenzyl)indoline-2,3-dione], in series [1], the “MTC (maximum tolerated concentration)” value came to 10 µM. In addition, the Angular velocity in series [2] stood at 131.2 ± 13.4 %. In series [3], the “0.1 µM ACh: response with modulator present divided by response to ACh alone” value turned out to be 1.42 ± 0.24; the “100 µM ACh: response with modulator present divided by response to ACh alone” value turned out to be 0.92 ± 0.06; the “No ACh: agonist effect of the allosteric ligand by itself, fraction of the maximal response that could be elicited by ACh” value is recorded as 0.01 ± 0.01. In addition, in series [4], the Therap. index worked out at 3.3, the Distance moved is listed as 72.4 ± 8.6* %, the Variance turn angle is listed as 135.3 ± 13.5* % and the MEC was 3 µM.
For `COc1c(Cl)cc(CN2C(=O)C(=O)c3ccccc32)cc1Cl` [Compound 8e, 1-(3,5-dichloro-4-methoxybenzyl)indoline-2,3-dione], the “MTC (maximum tolerated concentration)” value in series [1] came to 100 µM. The Angular velocity in series [2] is 222.1 ± 25.0 %. In series [3], the “0.1 µM ACh: response with modulator present divided by response to ACh alone” value came out at 2.29 ± 0.14; the “100 µM ACh: response with modulator present divided by response to ACh alone” value is on record as 1.21 ± 0.07; the “No ACh: agonist effect of the allosteric ligand by itself, fraction of the maximal response that could be elicited by ACh” value was found to be 0.13 ± 0.04. In series [4], the Therap. index stood at 100, the Distance moved is given as 29.1 ± 5.3*** %, the Variance turn angle was 158.8 ± 14.3*** % and the MEC was 1 µM.
As for `COc1c(F)cc(CN2C(=O)C(=O)c3ccccc32)cc1F` [Compound 8g, 1-(3,5-difluoro-4-methoxybenzyl)indoline-2,3-dione], the “MTC (maximum tolerated concentration)” value in series [1] is 30 µM. In addition, the Angular velocity in series [2] stood at 144.5 ± 18.6 %. In addition, in series [3], the “0.1 µM ACh: response with modulator present divided by response to ACh alone” value was 1.41 ± 0.13; the “100 µM ACh: response with modulator present divided by response to ACh alone” value was 0.95 ± 0.05; the “No ACh: agonist effect of the allosteric ligand by itself, fraction of the maximal response that could be elicited by ACh” value was found to be 0.03 ± 0.01. Also, in series [4], the Therap. index is 30, the Distance moved is listed as 65.7 ± 11.7*** %, the Variance turn angle is recorded as 126.5 ± 10.4* % and the MEC amounted to 1 µM.
Consider `CCCCc1oc2ccccc2c1C(=O)c1ccc(OCCN(CC)CC)cc1` [Compound 6c, (2-butylbenzofuran-3-yl)(4-(2-(diethylamino)ethoxy)phenyl)methanone], for which the “MTC (maximum tolerated concentration)” value in series [1] is reported as 3 µM. The compound also had an Angular velocity in series [2] of 129.9 ± 20.1%. Further, in series [3], the “0.1 µM ACh: response with modulator present divided by response to ACh alone” value came out at 0.40 ± 0.11; the “100 µM ACh: response with modulator present divided by response to ACh alone” value is 1.04 ± 0.05; the “No ACh: agonist effect of the allosteric ligand by itself, fraction of the maximal response that could be elicited by ACh” value came to 0.04 ± 0.01. Besides, in series [3] (modulators at 10 µM (amiodarone 30 µM)), the “Effect on M1 receptor activity and ACh response, in words” value was “decreased ACh activity”. In series [4], this compound came in with a Therap. index of 30, a Distance moved of 59.8 ± 8.8%, a Variance turn angle of 136.4 ± 11.8% and an MEC of 0.1 µM.
In the case of `COc1ccc(CN2C(=O)C(=O)c3ccccc32)cc1Cl` [Compound 8f, 1-(3-chloro-4-methoxybenzyl)indoline-2,3-dione], the “MTC (maximum tolerated concentration)” value in series [1] is on record as 10 µM. In series [2], this compound showed an Angular velocity of 157.1 ± 24.5 %. For the same compound, in series [3], the “0.1 µM ACh: response with modulator present divided by response to ACh alone” value turned out to be 1.67 ± 0.12; the “100 µM ACh: response with modulator present divided by response to ACh alone” value is recorded as 1.08 ± 0.06; the “No ACh: agonist effect of the allosteric ligand by itself, fraction of the maximal response that could be elicited by ACh” value was 0.09 ± 0.04. For the same compound, in series [4], the Therap. index turned out to be 3.3, the Distance moved is listed as 37.4 ± 6.4*** %, the Variance turn angle came to 127.9 ± 16.2% and the MEC was determined as 3 µM.
Consider `O=C1C(=O)N(Cc2cc(F)c(F)c(F)c2)c2ccccc21` [Compound 8i, 1-(3,4,5-trifluorobenzyl)indoline-2,3-dione], for which, in series [1], the “MTC (maximum tolerated concentration)” value is on record as 10 µM. Further, in series [2], the Angular velocity is recorded as 412.1 ± 28.7 %. For the same compound, in series [3], the “0.1 µM ACh: response with modulator present divided by response to ACh alone” value amounted to 1.47 ± 0.12; the “100 µM ACh: response with modulator present divided by response to ACh alone” value came to 1.04 ± 0.02; the “No ACh: agonist effect of the allosteric ligand by itself, fraction of the maximal response that could be elicited by ACh” value is 0.06 ± 0.01. In series [4], the Therap. index came to 10, the Distance moved is 11.6 ± 1.2*** %, the Variance turn angle is reported as 146.1 ± 16.1** % and the MEC is reported as 1 µM.
